# Patent US20240400518A1, “SOS1 INHIBITOR AND USE THEREOF” (KANAPH THERAPEUTICS INC., priority 2021, published 2024)
# Molecular target: T1, SOS1 (Homo sapiens, UniProt Q07889)
# T1 construct: adding equal amounts of HIS—SOS1cat (160 nM; Cytoskeleton, US); His (N); purchased Cytoskeleton, US
# T1 sequence (Q07889 564-1049 limits assumed): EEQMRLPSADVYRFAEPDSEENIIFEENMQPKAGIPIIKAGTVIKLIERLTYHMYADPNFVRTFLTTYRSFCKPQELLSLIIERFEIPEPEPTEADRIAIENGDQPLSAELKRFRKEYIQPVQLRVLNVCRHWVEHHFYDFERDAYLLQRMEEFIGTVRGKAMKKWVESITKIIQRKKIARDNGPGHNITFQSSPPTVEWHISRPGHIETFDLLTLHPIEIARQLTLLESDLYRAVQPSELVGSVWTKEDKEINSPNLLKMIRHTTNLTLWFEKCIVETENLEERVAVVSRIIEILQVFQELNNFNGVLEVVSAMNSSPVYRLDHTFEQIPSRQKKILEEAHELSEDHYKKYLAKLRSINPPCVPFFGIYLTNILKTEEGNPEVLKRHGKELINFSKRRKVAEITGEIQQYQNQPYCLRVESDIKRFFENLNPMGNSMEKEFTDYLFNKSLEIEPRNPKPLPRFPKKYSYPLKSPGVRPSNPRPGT
# Test: SOS-catalyzed nucleotide exchange assay (HTRF, SOS1-mediated GTP loading of KRAS G12D)
# Type: biochemical
# Settings: GST-KRAS G12D, HIS-SOS1cat, IC50 class
# Procedure: SOS1 activity was measured by SOS1-mediated GTP loading quantification of KRAS^G12D. GTP loaded KRAS^G12D was detected by HTRF (Homogeneous Time Resolved Fluorescence) using anti-GST terbium (Cisbio, France) as a donor and a fluorescence GTP analogue (EDA-GTP-DY-647P1, [DY-647P1 labeled 2′/3′-O-(2-aminoethyl-carbamoyl)guanosine-5′-triphosphate (Jena bioscience, Germany)]) as an acceptor.
# Assay buffer was composed of 10 mM HEPES pH 7.4, 150 mM NaCl, 5 mM MgCl2, 1 mM DTT, 0.05% BSA Fraction V pH 7.0 (Sigma) and 0.0025% (v/v) Igepal (Sigma). KRAS^G12D working solution was prepared by adding equal amounts of GST-KRAS^G12D (100 nM) and anti-GST-terbium (2 nM; Cisbio, France) to the assay buffer and culturing on ice for 10 minutes. SOS1cat working solution was prepared by adding equal amounts of HIS—SOS1cat (160 nM; Cytoskeleton, US) and EDA-GTP-DY-647P1 (200 nM; Jena bioscience, Germany) to the assay buffer. Control solution was prepared by adding equal volumes of EDA-GTP-DY-647P1 and the assay buffer for normalization control to exclude GEF-independent GTP loading and background signals. In order to induce a reaction, 5 μL of the SOS1cat working solution or the control solution was injected into each well. 5 μL of a compound having various concentrations from 128 pM to 10 μM was added to wells containing the SOS1cat working solution and incubated at room temperature for 10 minutes to bind to SOS1.
# 10 μL of the KRAS^G12D solution was added to each well and incubated for 30 minutes at room temperature while shaking. HTRF was measured using a Thermo Varioskan (excitation 334 nm, emission 665 nm). The IC50 of each inhibitor was analyzed using Graphad Prism.
row,IC50 [nM],SMILES
1,1000 to 10000,C[C@@H](NC(=O)c1ccc(=O)n(-c2ccc(-c3ccccc3)cc2)n1)c1cc(N)cc(C(F)(F)F)c1 [Example 24]
2,< 1000,"C[C@@H](NC(=O)c1ccc(=O)n(-c2cccc(-c3ccnn3C)c2)c1)c1cccc(C(F)(F)CO)c1F [Example 78, N-[(1R)-1-[3-(1,1-difluoro-2-hydroxyethyl)-2-fluorophenyl]ethyl]-1-[3-(1-methyl-1H-pyrazol-5-yl)phenyl]-6-oxo-1,6-dihydropyridine-3-carboxamide]"

# Molecular target: T2, KRAS^G12C::SOS1 (Homo sapiens, UniProt Q07889)
# T2 construct: purchased CISBIO, FRANCE 64KRASG12PEH
# T2 sequence (Q07889 1-1333): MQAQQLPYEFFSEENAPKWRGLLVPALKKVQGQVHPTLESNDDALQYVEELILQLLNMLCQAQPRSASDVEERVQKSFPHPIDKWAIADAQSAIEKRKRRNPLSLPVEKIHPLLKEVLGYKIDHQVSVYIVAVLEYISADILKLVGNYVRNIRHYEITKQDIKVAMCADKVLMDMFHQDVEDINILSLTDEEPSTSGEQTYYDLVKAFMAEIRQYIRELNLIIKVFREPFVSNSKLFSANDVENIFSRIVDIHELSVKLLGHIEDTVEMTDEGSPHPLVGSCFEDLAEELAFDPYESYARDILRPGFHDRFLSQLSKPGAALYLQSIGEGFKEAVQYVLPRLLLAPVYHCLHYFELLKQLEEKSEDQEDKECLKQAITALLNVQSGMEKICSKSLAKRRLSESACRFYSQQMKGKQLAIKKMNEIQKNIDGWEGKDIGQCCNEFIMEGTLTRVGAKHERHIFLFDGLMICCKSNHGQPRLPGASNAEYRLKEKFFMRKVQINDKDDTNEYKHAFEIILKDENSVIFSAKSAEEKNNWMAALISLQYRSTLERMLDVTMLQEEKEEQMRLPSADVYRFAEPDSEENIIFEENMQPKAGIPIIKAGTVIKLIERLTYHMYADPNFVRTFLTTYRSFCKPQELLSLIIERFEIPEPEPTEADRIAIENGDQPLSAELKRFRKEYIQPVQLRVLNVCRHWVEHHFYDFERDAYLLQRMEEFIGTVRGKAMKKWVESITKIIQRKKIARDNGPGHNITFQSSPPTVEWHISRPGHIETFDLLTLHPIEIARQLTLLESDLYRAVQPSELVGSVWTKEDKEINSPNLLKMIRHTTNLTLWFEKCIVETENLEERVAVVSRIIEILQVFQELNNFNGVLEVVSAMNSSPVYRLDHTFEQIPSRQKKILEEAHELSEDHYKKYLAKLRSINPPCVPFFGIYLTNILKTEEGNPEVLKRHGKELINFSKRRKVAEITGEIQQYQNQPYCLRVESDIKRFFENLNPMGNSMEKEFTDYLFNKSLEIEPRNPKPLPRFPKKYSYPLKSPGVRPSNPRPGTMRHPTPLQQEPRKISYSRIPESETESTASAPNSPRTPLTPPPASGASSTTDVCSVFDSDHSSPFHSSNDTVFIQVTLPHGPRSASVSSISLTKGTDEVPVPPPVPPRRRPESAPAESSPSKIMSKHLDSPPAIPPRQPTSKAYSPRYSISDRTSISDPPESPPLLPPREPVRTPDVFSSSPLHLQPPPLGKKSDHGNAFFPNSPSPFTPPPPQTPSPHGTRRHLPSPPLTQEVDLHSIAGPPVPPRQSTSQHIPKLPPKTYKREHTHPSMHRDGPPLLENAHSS
# Test: KRAS G12C::SOS1 protein-protein interaction (PPI) inhibition assay (HTRF binding kit)
# Settings: max inhibitor concentration 3 μM, three replicates, IC50 class
# Procedure: Protein-protein interaction between SOS1 and KRAS^G12C was detected using KRAS G12C/SOS1 binding kit from CISBIO (64KRASG12PEH, CISBIO, FRANCE) according to the manufacturer's assay method. Briefly, the maximum concentration of an inhibitor sample was set to be 3 μM, and the inhibitor sample was diluted 7 times by 1/3, and samples having a total of 8 concentrations were prepared. In HTRF (Homogeneous Time-Resolved Fluorescence) exclusive 96-well low-volume white plate (66PL96005, CISBIO, FRANCE), 2 μL of an inhibitor sample prepared for each concentration, 5 μL of a mixed solution of Tag1 labeled KRAS^G12C protein and GTP diluted with the dilution solution provided by the manufacturer, and 5 μL of Tag2 labeled SOS1 protein were mixed, and added with 8 μL of a diluted solution where anti-Tag1 KRAS^G12CXL665 (HTRF acceptor) labeled antibody and anti-Tag2 SOS1 Terbium cryptate (HTRF donor) labeled antibody were mixed in an equal ratio and cultured at room temperature for 2 hours.
row,IC50 [nM],SMILES
1,< 1000,C[C@@H](NC(=O)c1ccc(=O)n(-c2cccc(C(C)(C)O)c2)n1)c1cc(N)cc(C(F)(F)F)c1 [Example 171]
2,< 1000,C[C@@H](NC(=O)c1ccc(=O)n(-c2ccncc2F)n1)c1cc(N)cc(C(F)(F)F)c1 [Example 191]
3,1000 to 10000,C[C@@H](NC(=O)c1ccc(=O)n(-c2cccc(-c3ccccc3)c2)n1)c1cc(N)cc(C(F)(F)F)c1 [Example 212]
4,< 1000,"Cc1c([C@@H](C)NC(=O)c2ccc(=O)n(-c3ccccc3F)n2)cc(N)cc1C(F)(F)F [Example 244, N-[(1R)-1-[5-amino-2-methyl-3-(trifluoromethyl)phenyl]ethyl]-1-(2-fluorophenyl)-6-oxo-pyridazine-3-carboxamide]"
5,< 1000,"C[C@@H](NC(=O)c1ccc(=O)n(-c2cccc(-c3cnoc3)c2)n1)c1cc(N)cc(C(F)(F)F)c1 [Example 322, N-[(1R)-1-[3-amino-5-(trifluoromethyl)phenyl]ethyl]-1-(3-isoxazol-4-ylphenyl)-6-oxo-pyridazine-3-carboxamide]"
6,< 1000,"C[C@@H](NC(=O)c1ccc(=O)n(-c2cccc(-c3cnnn3C)c2)n1)c1cccc(C(F)(F)CO)c1F [Example 370, N-[(1R)-1-[3-(1,1-difluoro-2-hydroxy-ethyl)-2-fluoro-phenyl]ethyl]-1-[3-(3-methyltriazol-4-yl)phenyl]-6-oxo-pyridazine-3-carboxamide]"
7,< 1000,"C[C@@H](NC(=O)c1ccc(=O)n(-c2cc(-c3cnnn3C)ccc2F)n1)c1cc(N)cc(C(F)(F)F)c1 [Example 371, N-[(1R)-1-[3-amino-5-(trifluoromethyl)phenyl]ethyl]-1-[2-fluoro-5-(3-methyltriazol-4-yl)phenyl]-6-oxo-pyridazine-3-carboxamide]"
8,< 1000,"Cc1cnnn1-c1cccc(-n2nc(C(=O)N[C@H](C)c3cc(N)cc(C(F)(F)F)c3)ccc2=O)c1 [Example 378, N-[(1R)-1-[3-amino-5-(trifluoromethyl)phenyl]ethyl]-1-[3-(5-methyltriazol-1-yl)phenyl]-6-oxo-pyridazine-3-carboxamide]"
9,< 1000,"C[C@@H](NC(=O)c1ccc(=O)n(-c2ccc(F)c(-c3cnnn3C)c2)n1)c1cc(N)cc(C(F)(F)F)c1 [Example 389, N-[(1R)-1-[3-amino-5-(trifluoromethyl)phenyl]ethyl]-1-[4-fluoro-3-(3-methyltriazol-4-yl)phenyl]-6-oxo-pyridazine-3-carboxamide]"
10,< 1000,C[C@@H](NC(=O)c1ccc(=O)n(-c2ccc(F)c(-c3cnnn3C)c2)n1)c1cccc(C(F)(F)CO)c1F [Example 390]
11,< 1000,"C[C@@H](NC(=O)c1ccc(=O)n(-c2cc(F)cc(-c3cnnn3C)c2)n1)c1cc(N)cc(C(F)(F)F)c1 [Example 391, N-[(1R)-1-[3-amino-5-(trifluoromethyl)phenyl]ethyl]-1-[3-fluoro-5-(3-methyltriazol-4-yl)phenyl]-6-oxo-pyridazine-3-carboxamide]"
12,< 1000,"C[C@@H](NC(=O)c1ccc(=O)n(-c2cncc(-c3cnnn3C)c2)n1)c1cc(N)cc(C(F)(F)F)c1 [Example 392, N-[(1R)-1-[3-amino-5-(trifluoromethyl)phenyl]ethyl]-1-[5-(3-methyltriazol-4-yl)-3-pyridyl]-6-oxo-pyridazine-3-carboxamide]"
13,< 1000,"[2H]C([2H])([2H])n1nncc1-c1cccc(-n2nc(C(=O)N[C@H](C)c3cccc(C(F)(F)CO)c3F)ccc2=O)c1 [Example 393, N-[(1R)-1-[3-(1,1-difluoro-2-hydroxy-ethyl)-2-fluoro-phenyl]ethyl]-6-oxo-1-[3-[3-(trideuteriomethyl)triazol-4-yl]phenyl]pyridazine-3-carboxamide]"

row,SMILES,IC50 [nM]
1,"C[C@@H](NC(=O)c1ccc(=O)n(-c2cccc(C(=O)O)c2)n1)c1cc(N)cc(C(F)(F)F)c1 [Example 249, 3-(3-{[(1R)-1-[3-amino-5-(trifluoromethyl)phenyl]ethyl]carbamoyl}-6-oxo-1,6-dihydropyridazin-1-yl)benzoic acid]",< 1000
2,"C[C@@H](NC(=O)c1ccc(=O)n(-c2ccccc2F)n1)c1ccc(Br)s1 [Example 265, N-[(1R)-1-(5-bromo-2-thienyl)ethyl]-1-(2-fluorophenyl)-6-oxo-pyridazine-3-carboxamide]",< 1000
3,CNCc1ccc(Cl)cc1-c1ccc([C@@H](C)NC(=O)c2ccc(=O)n(-c3cccnc3)c2)s1 [Example 284],< 1000
4,"Cc1cnnn1-c1cccc(-n2cc(C(=O)N[C@H](C)c3cc(N)cc(C(F)(F)F)c3)ccc2=O)c1 [Example 377, N-[(1R)-1-[3-amino-5-(trifluoromethyl)phenyl]ethyl]-1-[3-(5-methyltriazol-1-yl)phenyl]-6-oxo-pyridine-3-carboxamide]",< 1000
